# Results: US7547444B1, “Methods for controlling fungi and bacteria” (priority 2003, dated 2009)
# Key:
# Alternaria solani = Alternaria solani (Potato); 18° C. for 7 days
# Protocol: (§1) A stock solution of the compound was prepared in DMSO at a concentration of 10,000 ppm a.i. Further dilutions were prepared with water. The test was conducted at the following concentrations: 125, 31, 8, 21, 0.5 and 0.125 ppm a.i. Spore suspensions of the fungi were prepared. The test was conducted in microtiter plates and for each fungus and each concentration, 3 wells were prepared. Incubation of the inoculated plates was carried out at 18° C. for 7 days. After this time, the optical density of the mycelium developed in each well was measured at 405 nm.
# Septonia tritici = test: Plant relevant mold panel, microtiter plate growth inhibition (OD 405 nm), IC 90; format: cell-based; settings: Septonia tritici (Wheat Leaf); 18° C. for 7 days
# [1] = test system: Colletotrichum lagenarium; test: as above; format: cell-based; settings: Colletotrichum lagenarium (Mellons); 18° C. for 7 days
# Fusarium culmorum = Fusarium culmorum (Wheat Head); 18° C. for 7 days
# Protocol: as §1
# Phytophthora infestans = Phytophthora infestans (Tomato); 18° C. for 7 days
# Pyrenophora teres = test: Plant relevant mold panel, microtiter plate growth inhibition (OD 405 nm), IC 90; format: cell-based; settings: Pyrenophora teres (Barley); 18° C. for 7 days
# Pyricularia oryzae = Pyricularia oryzae (Rice); 18° C. for 7 days
# [2] = test system: roundworms, threadworms, and whipworms; settings: reported; cited from earlier work
# Rhizoctonia solani = test: Plant relevant mold panel, microtiter plate growth inhibition (OD 405 nm), IC 90; format: cell-based; settings: Rhizoctonia solani (Rice Sheath); 18° C. for 7 days
# Cochliobolus mijabeanus = Cochliobolus mijabeanus (Corn); 18° C. for 7 days
# Protocol: as §1
# Botrytis cinerea = test: Plant relevant mold panel, microtiter plate growth inhibition (OD 405 nm), IC 90; format: cell-based; settings: Botrytis cinerea (Vegetable); 18° C. for 7 days
# Candida albicans = settings: in vitro, 24 hours at 35 degrees C.
# Aspergillus fumigatus = settings: in vitro, 24 hours at 35 degrees C.
# Vibrio cholerae = settings: in vitro, 24 hours at 35° C.
# Streptococcus pyogenes = settings: in vitro, 24 hours at 35° C.
# Streptococcus faecalis = settings: in vitro, 24 hours at 35° C.
# Bordella bronchiseptica = settings: in vitro, 24 hours at 35° C.
# Candida tropicalis = settings: in vitro, 24 hours at 35 degrees C.
# Staphylococcus aureus = settings: in vitro, 24 hours at 35° C.
# E. coli = settings: in vitro, 24 hours at 35° C.
# Cryptococcus neoformans = settings: in vitro, 24 hours at 35 degrees C.
# Aspergillus flavus = settings: in vitro, 24 hours at 35 degrees C.
# Streptococcus algalactia = settings: in vitro, 24 hours at 35° C.
# Fusarium solani = settings: in vitro, 24 hours at 35 degrees C.
# Pseudomonas aerugenosa = settings: in vitro, 24 hours at 35° C.
# [3] = test system: Trichophyton mentagrophyt
# Pasturella multocida = settings: in vitro, 24 hours at 35° C.
molecule,measurement,setting,value
CC[n+]1c(/C=C/c2ccc(N3CCCC3)cc2)cccc1/C=C/c1ccc(N2CCCC2)cc1.[I-] [Stilbazium iodide],IC90,Alternaria solani,>125 ppm a.i.
same,IC90,Septonia tritici,2 ppm a.i.
same,IC90,[1],31 ppm a.i.
same,IC90,Fusarium culmorum,>125 ppm a.i.
same,IC90,Phytophthora infestans,2 ppm a.i.
same,IC90,Pyrenophora teres,31 ppm a.i.
same,IC90,Pyricularia oryzae,8 ppm a.i.
same,anthelmintic effectiveness,[2],effective
same,IC90,Rhizoctonia solani,2 ppm a.i.
same,IC90,Cochliobolus mijabeanus,>125 ppm a.i.
same,IC90,Botrytis cinerea,0.5 ppm a.i.
Stilbazium Chloride [formula I],MIC,Trichophyton rubrum,1.6 µg/mL
same,MIC,Candida albicans,<0.006 µg/mL
same,MIC,Aspergillus fumigatus,<0.006 µg/mL
same,MIC,Microsporidium gypseum,1.6 µg/mL
same,MIC,Vibrio cholerae,10.0 µg/mL
same,MIC,Trichophyton eguinium,1.6 µg/mL
same,MIC,Epidermophyton floccsum,1.6 µg/mL
same,MIC,Streptococcus pyogenes,1.0 µg/mL
same,MIC,Streptococcus faecalis,1.0 µg/mL
same,MIC,Bordella bronchiseptica,1.0 µg/mL
same,MIC,Candida tropicalis,<0.4 µg/mL
same,MIC,Staphylococcus aureus,0.3 µg/mL
same,MIC,E. coli,>100 µg/mL
same,MIC,Cryptococcus neoformans,<0.4 µg/mL
same,MIC,Rhizopus arrihizus,6.25 µg/mL
same,MIC,Aspergillus flavus,6.25 µg/mL
same,MIC,Streptococcus algalactia,1.0 µg/mL
same,MIC,Fusarium solani,<0.4 µg/mL
same,MIC,Pseudomonas aerugenosa,>100 µg/mL
same,MIC,[3],1.6 µg/mL
same,MIC,Saccharomyces cervisciae,<0.4 µg/mL
same,MIC,Pasturella multocida,3.0 µg/mL
same,MIC,Microsporidium canis,1.6 µg/mL
